Reference: patent US4465674A, “Azahomoerythromycin D derivative and intermediates therefor” (Pfizer Inc., priority 1983, dated 1984)
Values after ≈ are worked out from the molar mass of the structure shown. Like-named read-outs stand apart in the source and are kept apart here.

How the values were obtained:
[1] = test system: Staph. aur.; experiment: in vitro MIC in BHI broth, Staph. aur.; type: cell-based
Excerpt: (§1) Generally twelve 2 fold dilutions of the test compound are employed, with initial concentration of the test drug being in the range of 50 to 200 mcg./ml.
(§2) The susceptibility (MIC) of the test organism is accepted as the lowest concentration of compound capable of producing complete inhibition of growth as judged by the naked eye.

[2] = test system: Kleb. pn.; experiment: in vitro MIC in BHI broth, Kleb. pn.; type: cell-based
[3] = test system: Staph. epi; experiment: in vitro MIC in BHI broth, Staph. epi; type: cell-based
Excerpt: as §1, §2

[4] = test system: Neiss. sic.; experiment: in vitro MIC in BHI broth, Neiss. sic.; type: cell-based
Excerpt: as §1, §2

[5] = test system: E. Coli; experiment: in vitro MIC in BHI broth, E. Coli; type: cell-based; settings: Escherichia coli
[6] = test system: Ent. aerog.; experiment: in vitro MIC in BHI broth, Ent. aerog.; type: cell-based
[7] = test system: Prov. strua.; experiment: in vitro MIC in BHI broth, Prov. strua.; type: cell-based
Excerpt: as §1, §2

[8] = test system: Serr. mar.; experiment: in vitro MIC in BHI broth, Serr. mar.; type: cell-based
Excerpt: as §1, §2

[9] = test system: Strep. faec.; experiment: in vitro MIC in BHI broth, Strep. faec.; type: cell-based
Excerpt: as §1, §2

[10] = test system: Past. mult.; experiment: in vitro MIC in BHI broth, Past. mult.; type: cell-based
Excerpt: as §1, §2

[11] = test system: Ent. cloac.; experiment: in vitro MIC in BHI broth, Ent. cloac.; type: cell-based
Excerpt: as §1, §2

[12] = test system: Kleb. oxy.; experiment: in vitro MIC in BHI broth, Kleb. oxy.; type: cell-based
Excerpt: as §1, §2

[13] = test system: H. influ.; experiment: in vitro MIC in BHI broth, H. influ.; type: cell-based
Excerpt: as §1, §2

[14] = test system: Strep. pyog.; experiment: in vitro MIC in BHI broth, Strep. pyog.; type: cell-based
Excerpt: as §1, §2

[15] = serum levels after oral dosage (micro-biological bioassay) in mice; type: in vivo
Method: Additionally, compound (II) is tested in vivo by the well-known mouse protection test, or by a micro-biological (bioassay) determination of serum levels in a variety of mammals (e.g., mouse, rat, dog).

[16] = test system: erythromycin A and D susceptible organisms and Gram negative microorganisms resistant to erythromycin A and D; experiment: spectrum of antibacterial activity; type: cell-based
Excerpt: as §1

[17] = Kleb. pn. 009, BHI broth, read-out: MIC
[18] = Staph. epi 111, BHI broth, read-out: MIC
[19] = Ent. aerog. 040, BHI broth, read-out: MIC
[20] = Prov. strua. 013, BHI broth, read-out: MIC
[21] = Serr. mar. 017, BHI broth, read-out: MIC
[22] = Past. mult. 001, BHI broth, read-out: MIC
[23] = Ent. cloac. 009, BHI broth, read-out: MIC
[24] = Kleb. oxy. 024, BHI broth, read-out: MIC
[25] = Strep. pyog. 203, BHI broth, read-out: MIC
[26] = Neiss. sic. 000, BHI broth, read-out: MIC

## CC[C@H]1OC(=O)[C@H](C)[C@@H](O[C@H]2C[C@@](C)(OC)[C@@H](O)[C@H](C)O2)[C@H](C)[C@@H](O[C@@H]2O[C@H](C)C[C@H](N(C)C)[C@H]2O)[C@](C)(O)C[C@@H](C)C(=O)[C@H](C)[C@@H](O)[C@]1(C)O [(1), Erythromycin A]
[1]; Staph. aur. 005, read-out: MIC
  MIC: 0.05 µg/mL (≈ 0.0681 µM)
[1]; Staph. aur. 052, read-out: MIC
  MIC: 0.1 µg/mL (≈ 0.136 µM)
[1]; Staph. aur. 400
  MIC: 6.25 µg/mL (≈ 8.52 µM)
[2]; [17]
  MIC: > 50 µg/mL
[2]; Kleb. pn. 031, BHI broth
  MIC: (a) (greater than 50)
[3]; [18]
  MIC: 0.05 µg/mL (≈ 0.0681 µM)
[4]
  MIC: 3.12 µg/mL (≈ 4.25 µM)
[5]; E. Coli 125
  MIC: > 50 µg/mL
[5]; E. Coli 129
  MIC: > 50 µg/mL
[5]; E. Coli 266
  MIC: > 50 µg/mL
[5]; E. Coli 470
  MIC: 1.56 µg/mL (≈ 2.13 µM)
[6]; [19]
  MIC: > 50 µg/mL
[7]; [20]
  MIC: > 50 µg/mL
[8]; [21]
  MIC: > 50 µg/mL
[9]; Strep. faec. 006, BHI broth, read-out: MIC
  MIC: 0.39 µg/mL (≈ 0.531 µM)
[10]; [22]
  MIC: 0.78 µg/mL (≈ 1.06 µM)
[11]; [23]
  MIC: > 50 µg/mL
[12]; [24]
  MIC: > 50 µg/mL
[13]; H. influ. 012
  MIC: 3.12 µg/mL (≈ 4.25 µM)
[13]; H. influ. 036
  MIC: 3.12 µg/mL (≈ 4.25 µM)
[13]; H. influ. 038
  MIC: 1.56 µg/mL (≈ 2.13 µM)
[13]; H. influ. 042
  MIC: 3.12 µg/mL (≈ 4.25 µM)
[13]; H. influ. 051
  MIC: 3.12 µg/mL (≈ 4.25 µM)
[13]; H. influ. 073
  MIC: 3.12 µg/mL (≈ 4.25 µM)
[13]; H. influ. 078
  MIC: 1.56 µg/mL (≈ 2.13 µM)
[13]; H. influ. 081
  MIC: 3.12 µg/mL (≈ 4.25 µM)
[14]; [25]
  MIC: 0.025 µg/mL (≈ 0.0341 µM)

## CC[C@H]1OC(=O)[C@H](C)[C@@H](O[C@H]2C[C@@](C)(O)[C@@H](O)[C@H](C)O2)[C@H](C)[C@@H](O[C@@H]2O[C@H](C)C[C@H](N(C)C)[C@H]2O)[C@](C)(O)C[C@@H](C)C(=O)[C@H](C)[C@@H](O)[C@H]1C [(2), Erythromycin D]
[1]; Staph. aur. 005
  MIC: 0.39 µg/mL (≈ 0.554 µM)
[1]; Staph. aur. 052
  MIC: 0.39 µg/mL (≈ 0.554 µM)
[1]; Staph. aur. 400
  MIC: 6.25 µg/mL (≈ 8.88 µM)
[2]
  MIC: > 50 µg/mL
[2]; Kleb. pn. 031, BHI broth
  MIC: (a) (greater than 50)
[3]
  MIC: 0.2 µg/mL (≈ 0.284 µM)
[4]
  MIC: 6.25 µg/mL (≈ 8.88 µM)
[5]; E. Coli 125
  MIC: > 50 µg/mL
[5]; E. Coli 129
  MIC: > 50 µg/mL
[5]; E. Coli 266
  MIC: > 50 µg/mL
[5]; E. Coli 470
  MIC: 3.12 µg/mL (≈ 4.43 µM)
[6]
  MIC: > 50 µg/mL
[7]
  MIC: > 50 µg/mL
[8]
  MIC: > 50 µg/mL
[9]
  MIC: 0.39 µg/mL (≈ 0.554 µM)
[10]
  MIC: 6.25 µg/mL (≈ 8.88 µM)
[11]
  MIC: > 50 µg/mL
[12]
  MIC: > 50 µg/mL
[13]; H. influ. 012
  MIC: 25 µg/mL (≈ 35.5 µM)
[13]; H. influ. 036
  MIC: 50 µg/mL (≈ 71 µM)
[13]; H. influ. 038
  MIC: 25 µg/mL (≈ 35.5 µM)
[13]; H. influ. 042
  MIC: 25 µg/mL (≈ 35.5 µM)
[13]; H. influ. 051
  MIC: 12.5 µg/mL (≈ 17.8 µM)
[13]; H. influ. 073
  MIC: 50 µg/mL (≈ 71 µM)
[13]; H. influ. 078
  MIC: 12.5 µg/mL (≈ 17.8 µM)
[13]; H. influ. 081
  MIC: 25 µg/mL (≈ 35.5 µM)
[14]
  MIC: 0.025 µg/mL (≈ 0.0355 µM)

## CC[C@H]1OC(=O)[C@H](C)[C@@H](O[C@H]2C[C@@](C)(OC)[C@@H](O)[C@H](C)O2)[C@H](C)[C@@H](O[C@@H]2O[C@H](C)C[C@H](N(C)C)[C@H]2O)[C@](C)(O)C[C@@H](C)CN(C)[C@H](C)[C@@H](O)[C@]1(C)O [(3), 9-deoxo-9a-methyl-9a-aza-9a-homoerythromycin A]
[1]; Staph. aur. 005, read-out: MIC
  MIC: 0.2 µg/mL (≈ 0.267 µM)
[1]; Staph. aur. 052, read-out: MIC
  MIC: 0.39 µg/mL (≈ 0.521 µM)
[1]; Staph. aur. 400, read-out: MIC
  MIC: 25 µg/mL (≈ 33.4 µM)
[3]; [18]
  MIC: 0.1 µg/mL (≈ 0.134 µM)
[4]; [26]
  MIC: 0.39 µg/mL (≈ 0.521 µM)
[5]; E. Coli 129
  MIC: 6.25 µg/mL (≈ 8.34 µM)
[5]; E. Coli 266
  MIC: 6.25 µg/mL (≈ 8.34 µM)
[5]; E. Coli 470
  MIC: 0.78 µg/mL (≈ 1.04 µM)
[7]; [20]
  MIC: 50 µg/mL (≈ 66.8 µM)
[8]; [21]
  MIC: 50 µg/mL (≈ 66.8 µM)
[9]
  MIC: 1.56 µg/mL (≈ 2.08 µM)
[10]; [22]
  MIC: 0.1 µg/mL (≈ 0.134 µM)
[11]; [23]
  MIC: 25 µg/mL (≈ 33.4 µM)
[12]; [24]
  MIC: 25 µg/mL (≈ 33.4 µM)
[13]; H. influ. 036, read-out: MIC
  MIC: 0.78 µg/mL (≈ 1.04 µM)
[13]; H. influ. 038, read-out: MIC
  MIC: 0.78 µg/mL (≈ 1.04 µM)
[13]; H. influ. 042, read-out: MIC
  MIC: 0.78 µg/mL (≈ 1.04 µM)
[13]; H. influ. 051
  MIC: 1.56 µg/mL (≈ 2.08 µM)
[13]; H. influ. 073, read-out: MIC
  MIC: 0.78 µg/mL (≈ 1.04 µM)
[13]; H. influ. 078, read-out: MIC
  MIC: 0.39 µg/mL (≈ 0.521 µM)
[13]; H. influ. 081, read-out: MIC
  MIC: 0.78 µg/mL (≈ 1.04 µM)
[14]; [25]
  MIC: 0.025 µg/mL (≈ 0.0334 µM)

## CC[C@H]1OC(=O)[C@H](C)[C@@H](O[C@H]2C[C@@](C)(O)[C@@H](O)[C@H](C)O2)[C@H](C)[C@@H](O[C@@H]2O[C@H](C)C[C@H](N(C)C)[C@H]2O)[C@](C)(O)C[C@@H](C)CN(C)[C@H](C)[C@@H](O)[C@H]1C [Compound (II), 9-deoxo-9a-methyl-9a-aza-9a-homoerythromycin D]
[15]
  absorption after oral dosage: exceptionally well absorbed
  serum levels: exceptionally high and long lasting serum levels
[1]; Staph. aur. 005, read-out: MIC
  MIC: 0.39 µg/mL (≈ 0.542 µM)
[1]; Staph. aur. 052, read-out: MIC
  MIC: 0.78 µg/mL (≈ 1.08 µM)
[1]; Staph. aur. 400, read-out: MIC
  MIC: > 50 µg/mL
[2]; [17]
  MIC: 50 µg/mL (≈ 69.5 µM)
[2]; Kleb. pn. 031, BHI broth
  MIC: 50 micrograms/ml.
[3]; [18]
  MIC: 0.39 µg/mL (≈ 0.542 µM)
[4]; [26]
  MIC: 0.78 µg/mL (≈ 1.08 µM)
[5]; E. Coli 125
  MIC: 25 µg/mL (≈ 34.8 µM)
[5]; E. Coli 129
  MIC: 12.5 µg/mL (≈ 17.4 µM)
[5]; E. Coli 266
  MIC: 12.5 µg/mL (≈ 17.4 µM)
[5]; E. Coli 470
  MIC: 0.39 µg/mL (≈ 0.542 µM)
[6]; [19]
  MIC: 50 µg/mL (≈ 69.5 µM)
[16]
  spectrum of antibacterial activity: relatively broad spectrum of antibacterial activity which includes erythromycin A and D susceptible organisms and, in addition, many Gram negative microorganisms resistant to erythromycin A and D
[7]; [20]
  MIC: > 50 µg/mL
[8]; [21]
  MIC: > 50 µg/mL
[10]; [22]
  MIC: 0.2 µg/mL (≈ 0.278 µM)
[11]; [23]
  MIC: > 50 µg/mL
[12]; [24]
  MIC: 50 µg/mL (≈ 69.5 µM)
[13]; H. influ. 012, read-out: MIC
  MIC: 3.12 µg/mL (≈ 4.34 µM)
[13]; H. influ. 036, read-out: MIC
  MIC: 3.12 µg/mL (≈ 4.34 µM)
[13]; H. influ. 038, read-out: MIC
  MIC: 1.56 µg/mL (≈ 2.17 µM)
[13]; H. influ. 042, read-out: MIC
  MIC: 3.12 µg/mL (≈ 4.34 µM)
[13]; H. influ. 051, read-out: MIC
  MIC: 3.12 µg/mL (≈ 4.34 µM)
[13]; H. influ. 073, read-out: MIC
  MIC: 0.39 µg/mL (≈ 0.542 µM)
[13]; H. influ. 078, read-out: MIC
  MIC: 0.78 µg/mL (≈ 1.08 µM)
[13]; H. influ. 081, read-out: MIC
  MIC: 3.12 µg/mL (≈ 4.34 µM)
[14]; [25]
  MIC: 0.025 µg/mL (≈ 0.0348 µM)
